Experimental data as given in US20230391779A1, “BICYCLIC COMPOUNDS, COMPOSITIONS AND USE THEREOF” (Betta Pharmaceuticals Co., Ltd., priority 2020, published 2023).

What was measured:
[1] = tested on: NCI-H226 human lung squamous cell carcinoma xenograft; test: In vivo efficacy, subcutaneous NCI-H226 xenograft model; set-up: species or system BALB/c nude mice; conditions: QD, oral, tumor volume at day 28
Description: In vivo pharmacodynamic and efficacy studies of compound 5, compound 6, and compound 124 in the subcutaneous NCI-H226 human lung squamous cell carcinoma xenograft model on BALB/c nude mice.
(§1) Each mouse (D000521 BALB/c-Nu, GemPharmatech Co., Ltd.) was inoculated subcutaneously at the right flank with NCI-H226 tumor cells (ATCC, CRL-5826) (1×107) in 0.2 mL of PBS with Matrigel (Corning, 356234) (1:1) for tumor development. Treatments were started when the average tumor size reached approximately 100-150 mm3. The test article was administered to the mice orally once a day from the day of grouping, total 28 days (QD×28 Days). Body weight change of animals was monitored regularly as an indicator of drug safety. Tumor volumes were measured twice weekly in two dimensions using a caliper, and the volume was expressed in mm3 using the formula “V=(LλW^2)/2”, where V is the tumor volume, L is the tumor length (the longest tumor dimension) and W is the tumor width (the longest tumor dimension perpendicular to L). Therapeutic efficacy was evaluated by tumor growth inhibition TGI (%)·TGI (%)=[1−(Ti−T0)/(Vi−V0)]×100; Ti is the average tumor volume of a treatment group on a given day, TO is the average tumor volume of the treatment group on day 0, Vi is the average tumor volume of the vehicle control group on the same day with Ti, and V0 is the average tumor volume of the vehicle group on day 0.

NCI-H226 cells = test: BRDU assay (cell proliferation); format: cell-based; conditions: Homo sapiens, proliferation inhibition, 1% FBS medium
Description: PerkinElmer's DELFIA® Cell proliferation kit (PerkinElmer, Cat: AD0200) was used to detect the inhibition on the proliferation of NCI-H226 cells (ATCC, CRL-5826). • a) Seeded 1500/well for NCI-H226 cell into a 96-well plate. • b) After 24 hours, compound was added to wells with 1% FBS medium conditions. The final testing concentrations of test compounds were […]. • c) NCI-H226 cells were incubated for 72 hours in incubator. • d) Diluted BrdU Labeling Reagent 100-fold with medium and added […] per well. The NCI-H226 cells were incubated 24 h in 5% CO2 at 37° C. incubator. • e) Detect cell proliferation according BrdU kit, and the luminescence signal value of each well on the multifunctional microplate reader was readed.
Data analysis: • Use GraphPad Prism 6 software to calculate IC50 and plot effect-dose curve of compounds.
Y=Bottom+(Top−Bottom)/(1+10^((LogIC50−X)×HillSlope)). • Y was the inhibition %, • X was the log concentration of compounds.
Inhibition %=(signalHC−signalcomp)/(signalHC−signalLC); • HC (high control) was DMSO group, • LC (low control) was 10 uM staurosporine group, • Comp was administration group.
IC50 data obtained for the Example compounds are provided in Table 7, and the inhibition curve in NCI-H226 cell line are as shown in FIG. 1-7, wherein X axis is compound concentration (nm), Y axis is the inhibition %.

[2] = Body weight change in NCI-H226 xenograft model; format: in vivo, BALB/c nude mice; conditions: daily oral dosing, 28 days, mice bearing NCI-H226 tumor
Description: as §1

TEAD-YAP/TAZ interaction = test: CTGF ELISA assay; format: cell-based, human; conditions: CTGF in culture supernatant of NCI-H2052 cells, 24 hours with compound
Summary of the method: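 NCI-H2052 cells treated 24 h at 37 °C with compound (10000–0.61 nM, 0.5% DMSO); secreted CTGF in supernatant measured by sandwich ELISA (OD 450 nm) against a standard curve. EC50 fitted from CTGF concentration-response curves.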

[3] = Pharmacokinetics in plasma following PO cassette dosing in mice; format: in vivo; conditions: mouse, Balb/C female mice, 5 mg/kg; for AUC: blood collection 30 min, 2 h, 4 h
Description: Adult Balb/C female mice (6-7 weeks, Vitalriver) were received to cassette dosing of the test compounds with 10-20% DMSO, 10% Solutol (Kolliphor HS 15, Beijing Fengli Jingqiu Pharmaceutical Co., Ltd.) and 80-70% H2O as excipients. The mice (n=3) were giving oral administration (intragastric administration) at a dose of 5 mg/kg. Time of blood collection: 30 min, 2 h, 4 h. About 0.1 mL of whole blood was collected from retro-orbital venous plexus, and placed into tubes that contained EDTA as an anticoagulant. The samples were centrifuged at 4° C. and 4000 rpm for 10 min. The plasma was transferred into centrifuge tubes, and stored at −20° C. before being analyzed. Concentrations of test compounds in the plasma samples were analyzed with liquid chromatography-tandem mass spectrometry (LC-MS/MS). Plasma concentration-time data of individual animals was analyzed using Microsoft Excel 2010. Non-compartmental model was introduced in concentration analysis. The pharmacokinetic parameters of the test compounds were calculated using WinNonlin (version 4.1; Pharsight) software.

SMILES	TGI (%) ([1]; 0.5 mg/kg)	TGI (%) ([1]; 2 mg/kg)	TGI (%) ([1]; 10 mg/kg)	TGI (%) ([1]; 50 mg/kg)	IC50 (NCI-H226 cells)	body weight loss [2]	EC50 (TEAD-YAP/TAZ interaction)	Cmax [3]	AUC [3]
C=C(F)C(=O)N1CC(n2nc(-c3ccc(C(F)(F)F)cc3)c3cccnc32)C1 [Compound 5, 2-fluoro-1-(3-(3-(4-(trifluoromethyl)phenyl)-1H-pyrazolo[3,4-b]pyridin-1-yl)azetidin-1-yl)prop-2-en-1-one]	40.3%	76.9%	101.3%	105.9%	0.00533 µM	no significant body weight loss	0.003 µM	–	–
C=C(C)C(=O)N1CC(n2nc(-c3ccc(C(F)(F)F)cc3)c3cccnc32)C1 [Compound 73, 2-methyl-1-(3-(3-(4-(trifluoro-methyl)phenyl)-1H-pyrazolo[3,4-b]pyridin-1-yl)azetidin-1-yl)prop-2-en-1-one]	–	–	–	–	0.115 µM	–	0.007 µM	1190 ng/mL	4070 ng·h/mL
C=C(F)C(=O)N1CC(n2nc(-c3ccc(C(F)(F)F)cc3)c3ncccc32)C1 [Compound 6, 2-fluoro-1-(3-(3-(4-(trifluoromethyl)phenyl)-1H-pyrazolo[4,3-b]pyridin-1-yl)azetidin-1-yl)prop-2-en-1-one]	–	77.1%	88.6%	–	0.14 µM	no significant body weight loss	0.002 µM	–	–
C=C(F)C(=O)N1CC(n2nc(-c3ccc(C(F)(F)F)nc3)c3cccnc32)C1 [Compound 124, 2-fluoro-1-(3-(3-(6-(trifluoro-methyl)pyridin-3-yl)-1H-pyrazolo[3,4-b]pyridin-1-yl)-azetidin-1-yl)prop-2-en-1-one]	–	67.3%	–	–	0.0207 µM	no significant body weight loss	0.014 µM	7190 ng/mL	24300 ng·h/mL
C=CC(=O)N1CCC(n2nc(-c3ccc(C(F)(F)F)cc3)c3ccccc32)C1 (centres unmarked) [Compound 3, 1-(3-(3-(4-(trifluoromethyl)phenyl)-1H-indazol-1-yl)pyrrolidin-1-yl)prop-2-en-1-one]	–	–	–	–	0.0195 µM	–	0.0304 µM	–	–
C=C(F)C(=O)N1CC(n2nc(-c3ccc(C(F)(F)F)nc3)c3ncccc32)C1 [Compound 132, 2-fluoro-1-(3-(3-(6-(trifluoro-methyl)pyridin-3-yl)-1H-pyrazolo[4,3-b]pyridin-1-yl)-azetidin-1-yl)prop-2-en-1-one]	–	–	–	–	0.0126 µM	–	0.006 µM	–	–
